In publication PMC5479785, “Tandem malonate-based glucosides (TMGs) for membrane protein structural studies” (Scientific Reports, 2017):

Experiments:
MelBEc [1] = molecular target: T1, MelBEc (Escherichia coli, UniProt P02921); assay: Trp to D2G FRET in detergent extract of membrane vesicles; assay type: biochemical; conditions: 10 μM D2G, 100 mM KPi, 100 mM NaCl, pH 7.5, TMG-A12 or TMG-A13; fluorescent ligand
T1 construct: gene melB; expressed in E. coli DW2 (ΔmelB ΔlacZY); detergent extract of RSO membrane vesicles
T1 sequence (P02921 2-473): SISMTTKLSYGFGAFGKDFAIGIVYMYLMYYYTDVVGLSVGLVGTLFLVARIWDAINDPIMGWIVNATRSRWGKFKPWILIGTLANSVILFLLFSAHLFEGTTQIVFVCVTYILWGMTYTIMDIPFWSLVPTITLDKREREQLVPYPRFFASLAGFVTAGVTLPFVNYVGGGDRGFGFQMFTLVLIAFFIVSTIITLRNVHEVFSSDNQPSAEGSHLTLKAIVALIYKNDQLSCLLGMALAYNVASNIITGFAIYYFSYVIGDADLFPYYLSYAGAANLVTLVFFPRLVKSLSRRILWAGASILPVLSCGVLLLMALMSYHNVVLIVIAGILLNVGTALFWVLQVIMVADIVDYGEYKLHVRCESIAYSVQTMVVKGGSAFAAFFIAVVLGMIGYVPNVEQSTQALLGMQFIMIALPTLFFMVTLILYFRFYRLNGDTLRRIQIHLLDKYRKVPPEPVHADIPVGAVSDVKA

MelBSt [2] = molecular target: T2, MelBSt (Salmonella enterica, UniProt P30878); assay: as above; assay type: biochemical; conditions: 10 μM D2G, 100 mM KPi, 100 mM NaCl, pH 7.5, DDM; fluorescent ligand
T2 construct: gene melB; wild type, C-terminal 10-His tag, plasmid pK95ΔAHB/WT MelBSt/CH10; detergent extract of RSO vesicles of E. coli DW2
T2 sequence (P30878 whole entry): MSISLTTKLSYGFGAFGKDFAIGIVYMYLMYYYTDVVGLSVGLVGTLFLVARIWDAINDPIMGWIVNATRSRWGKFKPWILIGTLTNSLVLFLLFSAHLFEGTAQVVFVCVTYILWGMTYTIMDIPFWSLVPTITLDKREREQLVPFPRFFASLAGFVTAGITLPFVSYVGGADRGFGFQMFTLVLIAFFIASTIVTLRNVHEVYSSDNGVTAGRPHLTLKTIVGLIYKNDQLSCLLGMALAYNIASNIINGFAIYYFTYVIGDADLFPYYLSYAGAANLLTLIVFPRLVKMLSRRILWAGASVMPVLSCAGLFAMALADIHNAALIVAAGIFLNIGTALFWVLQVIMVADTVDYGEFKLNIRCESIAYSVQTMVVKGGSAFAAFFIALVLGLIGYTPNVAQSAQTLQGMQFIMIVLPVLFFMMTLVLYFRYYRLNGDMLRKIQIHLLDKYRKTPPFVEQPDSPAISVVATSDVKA

β2AR = molecular target: T3, β2AR (Homo sapiens, UniProt P07550); assay: radioligand binding, G-50 column separation; conditions: 10 nM [3H]-DHA, 20 mM HEPES pH 7.5, 100 mM NaCl, 0.5 mg/mL BSA, DDM or TMG detergent; antagonist; labelled compound
T3 construct: gene ADRB2; expressed in Sf9 insect cells (baculovirus), purified in DDM
T3 sequence (P07550 whole entry): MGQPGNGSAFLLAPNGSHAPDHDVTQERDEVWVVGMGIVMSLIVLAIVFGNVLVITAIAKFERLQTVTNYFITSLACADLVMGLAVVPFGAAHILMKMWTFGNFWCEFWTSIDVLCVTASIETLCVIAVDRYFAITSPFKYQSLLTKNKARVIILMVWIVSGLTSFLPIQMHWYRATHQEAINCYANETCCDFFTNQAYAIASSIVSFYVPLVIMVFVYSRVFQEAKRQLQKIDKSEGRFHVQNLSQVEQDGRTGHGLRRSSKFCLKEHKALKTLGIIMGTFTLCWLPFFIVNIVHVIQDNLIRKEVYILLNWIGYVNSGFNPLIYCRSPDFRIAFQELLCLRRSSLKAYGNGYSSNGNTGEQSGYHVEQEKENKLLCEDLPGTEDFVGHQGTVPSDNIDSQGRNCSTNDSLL

MelBSt [3] = molecular target: T2, MelBSt; assay: reversal of Trp to D2G FRET by displacement; assay type: biochemical; conditions: excess melibiose against 10 μM D2G, 100 mM KPi, 100 mM NaCl, pH 7.5, DDM; competitive
MelBEc [4] = molecular target: T1, MelBEc; assay: reversal of Trp to D2G FRET by displacement; assay type: biochemical; conditions: excess melibiose against 10 μM D2G, 100 mM KPi, 100 mM NaCl, pH 7.5, TMG-A12 or TMG-A13; competitive

CN(C)c1cccc2c(S(=O)(=O)NCCS[C@@H]3O[C@H](CO)[C@H](O)[C@H](O)[C@H]3O)cccc12 [D2G, 2′-(N-dansyl)aminoalkyl-1-thio-β-D-galactopyranoside] was tested, and the “Trp→D2G FRET” value (MelBEc [1]) was “TMG-A12 or TMG-A13 resulted in a functional MelBEc as demonstrated by large changes in FRET signal” and the “Trp→D2G FRET” value (MelBSt [2]) was “a functional MelBSt gives an increase in fluorescence intensity induced by Trp→ D^2G FRET”.
With CCCc1ccccc1OCC(O)CNC(C)C (centres unmarked) [[3H]-dihydroalprenolol] the “[3H]-DHA binding” value (β2AR) was “receptor stability was assessed via a ligand binding assay using the antagonist, [^3H]-dihydroalprenolol”.
For OC[C@H]1O[C@H](OC[C@H]2OC(O)[C@H](O)[C@@H](O)[C@@H]2O)[C@H](O)[C@@H](O)[C@H]1O (some centres unmarked) [melibiose], the FRET reversal (MelBSt [3]) was “Upon addition of melibiose, the DDM-solubilized MelBSt gave a large reversal in the FRET signal” and the FRET reversal (MelBEc [4]) was “reversed by adding a non-fluorescent sugar substrate (i.e., melibiose)”.
